Reference: patent publication US20260285853A1, “COMPOUNDS AND METHODS FOR MODULATING SPLICING” (REMIX THERAPEUTICS INC., priority 2023, published 2026)
pIC50: −log10 of the molar value. Like-named read-outs stand apart in the source and are kept apart here.

Assays:
Type in all cases: cell-based
MYB mRNA [1] = experiment: Splicing RT-qPCR assay (THP), Table 2A
MYB mRNA [2] = experiment: Gene panel canonical junction qPCR assay, decrease in CJ mRNA, Table 3
In short: (§1)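 Eleven-point dose responses from 10 uM final, 24 h, DMSO ≤0.25%, in A673 or K562 cells. Relative quantification by 2^(−ΔΔCt) against housekeeper and vehicle was converted to percent response over fixed ΔCt windows and fitted to yield IC50.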

HTT mRNA [3] = experiment: as above
In short: as §1

HTT mRNA [4] = experiment: Splicing RT-qPCR assay (THP), Table 2A
[5] = system: SH-SY5Y (human neuroblastoma) cells; experiment: Cell viability, Cell Titer Glo 2.0 assay; settings: read-out: Viability SHSY5Y.3 GI50
In short: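 Following a 72 h incubation (37 °C, 5% CO2, 0.1% DMSO final), compound toxicity toward SH-SY5Y cells was quantified by CellTiter-Glo 2.0.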

[6] = Table 2A (THP), AJ mRNA increase, read-out: MYB AJ (increase in alternative junction mRNA, AC50)
[7] = Table 2A (THP), CJ mRNA decrease, read-out: MYB CJ (decrease in canonical junction mRNA, IC50)
[8] = decrease in canonical junction (CJ) mRNA, gene panel qPCR, Table 3
[9] = Table 2A (THP), AJ mRNA increase, read-out: HTT AJ (increase in alternative junction mRNA, AC50)
[10] = Table 2A (THP), CJ mRNA decrease, read-out: HTT CJ (decrease in canonical junction mRNA, IC50)
[11] = Table 2A, THP, MYB alternative junction (AJ) mRNA, read-out: MYB AJ (AC50, increase in alternative junction mRNA)
[12] = Table 2A, THP, MYB canonical junction (CJ) mRNA, read-out: MYB CJ (IC50, decrease in canonical junction mRNA)
[13] = decrease in CJ mRNA levels, canonical junction qPCR, gene panel
[14] = Table 2A, THP, HTT alternative junction (AJ) mRNA, read-out: HTT AJ (AC50, increase in alternative junction mRNA)
[15] = Table 2A, THP, HTT canonical junction (CJ) mRNA, read-out: HTT CJ (IC50, decrease in canonical junction mRNA)

Row | SMILES | pIC50 (MYB mRNA [1]; [7]) | pIC50 (MYB mRNA [2]; [8]) | pIC50 (HTT mRNA [3]; [8]) | pIC50 (HTT mRNA [4]; [10]) | GI50 [5] [µM] | pIC50 (MYB mRNA [1]; [12]) | pIC50 (MYB mRNA [2]; [13]) | pIC50 (HTT mRNA [3]; [13]) | pIC50 (HTT mRNA [4]; [15]) | AC50 (MYB mRNA [1]; [6]) [µM] | AC50 (HTT mRNA [4]; [9]) [µM] | AC50 (MYB mRNA [1]; [11]) [µM] | AC50 (HTT mRNA [4]; [14]) [µM]
1 | COc1ncccc1NC(=O)c1c(F)cc(N2CCC(NC3CC3)CC2)c2cn(C)nc12 [Compound 412, 4-(4-(cyclopropylamino)piperidin-1-yl)-6-fluoro-N-(2-methoxypyridin-3-yl)-2-methyl-2H-indazole-7-carboxamide] | 5.00 to 6.00 | 5.00 to 6.00 | < 5.00 | < 5.00 | 1 to 10 | – | – | – | – | 1 to 10 | > 10 | – | –
2 | CCNC1C(C)CN(c2ccc(C(=O)Nc3cc4cn(C)nc4cc3OC)c3nn(C)cc23)CC1C (centres unmarked) [Compound 687] | – | – | – | – | > 10 | 5.00 to 6.00 | 5.00 to 6.00 | < 5.00 | < 5.00 | – | – | 1 to 10 | > 10
3 | COCCNc1cc(N2CCC(NC3CC3)CC2)c2cn(C)nc2c1C(=O)Nc1cc2cn(C)nc2cc1OC [Compound 442, 4-[4-(cyclopropylamino)-1-piperidyl]-6-(2-methoxyethylamino)-N-(6-methoxy-2-methyl-indazol-5-yl)-2-methyl-indazole-7-carboxamide] | < 5.00 | < 5.00 | < 5.00 | < 5.00 | 1 to 10 | – | – | – | – | > 10 | > 10 | – | –
4 | CCNC1CCN(c2ccc(C(=O)Nc3cc(CCC(=O)N(C)C)c4nn(C)cc4c3)c3nn(C)cc23)CC1 [Compound 877] | – | – | – | – | > 10 | < 5.00 | < 5.00 | < 5.00 | < 5.00 | – | – | > 10 | > 10
5 | Cc1cn2cc(NC(=O)c3ccc(NC(=O)c4ncc[nH]4)c4[nH]cnc34)cc(F)c2n1 [Compound 610, 2,2,2-trifluoroacetate] | – | – | – | – | > 10 | < 5.00 | < 5.00 | < 5.00 | < 5.00 | – | – | > 10 | > 10

Further lines, with some results ahead:

Row | pIC50 (MYB mRNA [1]; [7]) | pIC50 (MYB mRNA [2]; [8]) | pIC50 (HTT mRNA [3]; [8]) | pIC50 (HTT mRNA [4]; [10]) | GI50 [5] [µM] | pIC50 (MYB mRNA [1]; [12]) | pIC50 (MYB mRNA [2]; [13]) | pIC50 (HTT mRNA [3]; [13]) | pIC50 (HTT mRNA [4]; [15]) | SMILES | AC50 (MYB mRNA [1]; [6]) [µM] | AC50 (HTT mRNA [4]; [9]) [µM] | AC50 (MYB mRNA [1]; [11]) [µM] | AC50 (HTT mRNA [4]; [14]) [µM]
6 | > 7.00 | > 7.00 | 5.00 to 6.00 | 5.00 to 6.00 | 0.1 to 1 | – | – | – | – | C[C@H]1CN(c2ccc(C(=O)Nc3cc(F)c4nn(C)cc4c3)c3nn(C)cc23)C[C@H](C)N1 [Compound 584, 4-[(3S, 5S)-3,5-dimethylpiperazin-1-yl]-N-(7-fluoro-2-methyl-indazol-5-yl)-2-methyl-indazole-7-carboxamide] | < 0.1 | 1 to 10 | – | –
7 | – | – | – | – | 0.1 to 1 | > 7.00 | > 7.00 | 6.00 to 7.00 | 6.00 to 7.00 | COCc1cc2c(N3CCC(NC4CC4)CC3)ccc(C(=O)Nc3cc(F)c4nc(C)cn4c3)n2n1 [Compound 620, 4-[4-(cyclopropylamino)-1-piperidyl]-N-(8-fluoro-2-methyl-imidazo[1,2-a]pyridin-6-yl)-2-(methoxymethyl)-pyrazolo[1,5-a]pyridine-7-carboxamide] | – | – | 0.1 to 1 | 0.1 to 1
8 | – | – | – | – | 1 to 10 | 5.00 to 6.00 | 5.00 to 6.00 | 5.00 to 6.00 | 5.00 to 6.00 | CCNC1CCN(c2ccc(C(=O)Nc3cc(CCC(=O)NC)c4nn(C)cc4c3)c3nn(C)cc23)CC1 [Compound 876] | – | – | 1 to 10 | 1 to 10
9 | 5.00 to 6.00 | 5.00 to 6.00 | < 5.00 | < 5.00 | 0.1 to 1 | – | – | – | – | Cc1cc2cc(NC(=O)c3ccc(N4CCC(NC5CC5)CC4)c4cn(C)nc34)oc2c(C)n1 [Compound 451, 4-(4-(cyclopropylamino)piperidin-1-yl)-N-(5,7-dimethyl-furo-[2,3-c]pyridin-2-yl)-2-methyl-2H-indazole-7-carboxamide 2,2,2-trifluoroacetate] | 1 to 10 | > 10 | – | –
10 | – | – | – | – | < 0.1 | > 7.00 | > 7.00 | 5.00 to 6.00 | 5.00 to 6.00 | COc1nc2c(C(=O)Nc3cc(C)c4nn(C)cc4c3)ccc(N3C[C@H](C)N[C@@H](C)C3)c2s1 [Compound 718, N-(2,7-dimethylindazol-5-yl)-7-[(3S,5S)-3,5-dimethylpiperazin-1-yl]-2-methoxy-1,3-benzothiazole-4-carboxamide] | – | – | < 0.1 | 1 to 10
11 | – | – | – | – | < 0.1 | > 7.00 | > 7.00 | 6.00 to 7.00 | 6.00 to 7.00 | COc1nc2c(C(=O)Nc3cc(F)c4nc(C)cn4c3)ccc(N3C[C@H](C)N[C@@H](C)C3)c2s1 [Compound 705, 7-[(3S,5S)-3,5-dimethylpiperazin-1-yl]-N-(8-fluoro-2-methyl-imidazo[1,2-a]pyridin-6-yl)-2-methoxy-1,3-benzothiazole-4-carboxamide] | – | – | < 0.1 | 0.1 to 1
